{
  "source": "patent US10849880B2",
  "about": "“Pharmaceutical composition” (FUJIFILM Toyama Chemical Co., Ltd., priority 2016, dated 2020)",
  "key": {"[1]": {"assay": "Evaluation of degradation material: stress test at 70° C. for 7 days, HPLC", "format": "physicochemical", "settings": "class of degradation material after 70° C.", "protocol": "The prepared solid pharmaceutical composition was subjected to a stress test that it was stored in a thermostat at 70° C. for 7 days. The storage stability was evaluated in terms of the amount of compound A decomposed by the following method.\nThe above stored solid pharmaceutical composition was adjusted with water/acetonitrile/pH 3.0 phosphate buffer (450:50:1) such that the maleate of compound A had 333 μg/mL and was filtered through a membrane filter to obtain a filtrate. The degradation material of compound A was quantified by high performance liquid chromatography (HPLC). The amount of the degradation material detected at a relative retention time of 0.94 with respect to compound A was quantified as the degradation material of compound A under the following measurement conditions.\n(HPLC Measurement Condition)\nEvaluation criteria for the degradation material are as follows:\nEvaluation was performed in the same manner as described in Examples 1-19 and Comparative Examples 1-14."}, "[2]": {"assay": "pH of maleate of compound A and additive dissolved or suspended in 10 mmol/L KCl solution", "format": "physicochemical", "settings": "maleate of compound A 1 mg/mL with additive", "protocol": "The pH was measured when the maleate of compound A and the additive were dissolved or suspended in a 10 mmol/L KCl solution in such a way as to reach the respective numerical values shown in Table 2 to Table 6."}},
  "data": [
    {"molecule": "OC1CN(CCCOCCc2ccc3sccc3c2)C1", "note": "[compound 14, 1-(3-(2-(1-benzothiophen-5-yl)ethoxy)propyl)azetidin-3-ol]", "values": [
      {"measurement": "Evaluation of degradation material", "setting": "[1]", "result": "A (Less than 0.25%)"},
      {"measurement": "pH", "setting": "[2]", "result": 4.5}
    ]}
  ]
}
